Read-outs that look alike come from different tables or passages of the source.
Key:
[1] = test system: wild-type Sprague Dawley rats; test: DC-Maximal electroshock seizure assay (DC-MES); format: in vivo, rat
Description: (§1) Phenytoin was formulated in physiologic saline and was administered intraperitoneally (i.p.) using a 25-gauge needle at a dose volume of 10 mL/kg. All compounds were administered 2 hr prior to electrical seizure induction for all seizure models employed in this study.
(§2) The maximal electroshock seizure (MES) assay has been extensively used in the search for anticonvulsant substances ([Löscher et al., 1991]; [Piredda et al., 1985]; [White et al., 1995]). The MES assay is sensitive to nonselective NaV inhibitors. It is considered a model for generalized tonic-clonic (GTC) seizures and provides an assessment of seizure spread. Briefly, an electroshock of direct current (DC) was delivered by corneal electrodes (Electro Convulsive Therapy Unit 57,800 from Ugo Basile). The parameters of stimulation were different between mice and rats. In CF1 mice aged 9–12 weeks, a direct current of 50 mA (60 Hz) was delivered for 0.2 s (pulse width of 0.5ms), whereas in Sprague Dawley (SD) rats aged 5–6 weeks, a direct current of 150 mA (60 Hz) was delivered for 0.3 s (pulse width of 0.5ms). Immediately prior to the electroshock, the animals’ eyes were anesthetized with a drop of Alcaine (0.5% proparacaine hydrochloride).
(§3) An animal was considered protected in the assay in the absence of a GTC with hindlimb extension and is then scored ‘0’. An animal displaying GTC with hindlimb extension was considered not protected and is then scored ‘1’. The experimenter scoring the seizure behavior was blinded to the treatment.

[2] = Bioanalytical assessment of plasma and brain concentrations after rat DC-MES assay; format: in vivo; conditions: Study18085, 2 mg/kg, Rat DC-MES
[3] = Bioanalytical assessment of plasma and brain concentrations after 6 Hz assay; format: in vivo, mouse
Description: (§4) Approximately 0.5 mL of blood was collected from each mouse at the end of the assay via cardiac puncture under deep anesthesia. The blood samples were collected in a syringe and transferred to tubes containing EDTA. Blood was stored at 4 °C until centrifuged within 30 min of collection. Plasma was harvested and placed on dry ice and stored in a freezer set to maintain a temperature of –70°C to –80°C until analysis. Brains were harvested immediately after blood collection and placed on dry ice prior to storage in a freezer set to maintain a temperature of –70°C to –80°C until analysis.
(§5) Extraction of plasma samples was carried out by protein precipitation using acetonitrile. Plasma samples (50 µL) were mixed with 50 µL of internal standard (IS) solution in water followed by addition of 10 µL of concentrated ortho-phosphoric acid and 200 µL of acetonitrile. Samples were vortexed for 30 seconds, centrifuged at 13,000 rpm for 20 min, decanted in to a 96-well plate, and further centrifuged at 4000 rpm for 20 min. The samples were analyzed by UHPLC-ESI-MS/MS as described below.
(§6) Prior to extraction, pre-weighed whole brains were homogenized in 1:1 acetonitrile/water (v/v) (4 mL per mouse brain) using an IKA T18 ULTRA-TURRAX Homogenizer at the setting of 4 for approximately 2 min. The homogenate was centrifuged at 13,000 rpm for 20 min and 50 µL of the supernatant were treated exactly as described above for plasma samples. […]
(§7) Samples were analyzed by UHPLC-ESI MS/MS using a TQ-5500 Sciex triple quadrupole mass spectrometer equipped with a Shimadzu Nexera UHPLC pump and auto-sampler system using an ACE C18 PFP, 2.50 × 50 mm, 1.7 µm particle size column and gradient elution consisting of solvent A (0.1% formic acid in water) and solvent B (0.1% formic acid in acetonitrile) starting at 20% B from 0 min to 0.4 min and then increased to 100% B from 0.4 min to 0.6 min. At 2.0 min, the mobile phase composition was switched back to […] for 1 min. The flow rate used throughout the experiment was […]. […] The UHPLC-ESI MS/MS system was controlled by Analyst 1.6.
(§8) Sample concentrations were determined using a linear calibration function, weighted 1 /X, generated by the regression of analyte to IS peak area ratios in the standard samples to their respective concentrations. Acceptance criteria for the analytical run required that the back calculated values of the standards and the QC samples fell within ±20% of their nominal values, except for the lowest standard or lower limit of quantitation (LLOQ), for which the acceptance criterion was ±25%. At least 6 out of 12 standard points had to show back-calculated values within ±20% of their nominal concentrations for the calibration to be accepted. At least three QC samples, one at each level, had to show back-calculated values within ±20% of their nominal concentrations for the whole sample batch to be valid.

[4] = test system: Scn8a^N1768D/+ mice; test: Modified 6 Hz psychomotor seizure assay; format: in vivo, mouse
Description: as §1
Scn8a^N1768D/+heterozygous mice were tested at 5 weeks of age (p35). The modified 6 Hz seizure assay in Scn8a^N1768D/+heterozygous mice was adapted from the traditional 6 Hz assay psychomotor seizure assay to provide a measure of in vivo on target (NaV1.6 mediated) efficacy ([Barton et al., 2001]). The modified assay used a low frequency (6 Hz) but long-duration stimulation (3 s) to induce seizures. […] An electroshock (6 Hz, 12 mA) was delivered for 3 s (at 0.3-ms pulse interval) by corneal electrodes (Electro Convulsive Therapy Unit 57,800 from Ugo Basile). Immediately prior to the electroshock, the animals’ eyes were anesthetized with a drop of Alcaine (0.5% proparacaine hydrochloride).
An animal was considered protected in the assay upon prevention of GTC with hindlimb extension and was then scored ‘0’. An animal displaying GTC with hindlimb extension was considered not protected and is then scored ‘1’. The experimenter scoring the seizure behavior was blinded to the treatment.

[5] = test system: Sprague Dawley rats; test: Observation of potential adverse behavior (behavioral signs) in the rat DC-MES studies; format: in vivo; conditions: Sprague Dawley, rat, in vivo, 2 hr
Description: Animals were observed by the scientist(s) responsible for dosing for the first 30 min after dosing for and again at the time of assay (2 hr post dose) for signs of abnormal behavior.

[6] = test system: wild-type mice (CF-1); test: DC-Maximal electroshock seizure assay (DC-MES); format: in vivo, mouse
Description: as §1, §2, §3

[7] = Bioanalytical assessment of plasma and brain concentrations after mouse DC-MES assay; format: in vivo; conditions: mouse, intraperitoneal, WT mouse DC-MES acute
Description: as §4, §5, §6, §7, §8

[8] = Study16042, 1 mg/kg, SCN8A mouse 6HZ
[9] = Study16042, 3 mg/kg, SCN8A mouse 6HZ
[10] = Study16042, 10 mg/kg, SCN8A mouse 6HZ
[11] = Study16042, 30 mg/kg, SCN8A mouse 6HZ
[12] = Study16042, 56 mg/kg, SCN8A mouse 6HZ
[13] = Study16189, 10 mg/kg, SCN8A mouse 6HZ
[14] = Study16189, 30 mg/kg, SCN8A mouse 6HZ
[15] = Study16202, 1 mg/kg, P75, SCN8A mouse 6HZ
[16] = Study16202, 3 mg/kg, P75, SCN8A mouse 6HZ

With O=C1NC(=O)C(c2ccccc2)(c2ccccc2)N1 [PHT] the “Rat DC-MES Fraction of animals seizing” value ([1]; Study18085, 2 mg/kg) was 0.667, the “Mean [Brain]” value [2] was 1.841 µM and the “Mean [Palsma]” value [2] was 3.4567 µM. For the same molecule, the “Mean [Brain]” value [3, 8] was 2.665 µM, the “Mean [Palsma]” value [3, 8] was 1.798 µM and the “Mean [Brain]” value [3, 9] was 11.7685 µM. The “Mean [Palsma]” value [3, 9] was 7.584 µM, the “Mean [Brain]” value [3, 10] was 38.4981 µM and the “Mean [Palsma]” value [3, 10] was 32.6675 µM. For the same molecule, the “Mean [Brain]” value [3, 11] was 120.646 µM, the “Mean [Palsma]” value [3, 11] was 92.6612 µM and the “Mean [Brain]” value [3, 12] was 109.171 µM. For the same molecule, the “Mean [Palsma]” value [3, 12] was 127.343 µM, the “Mean [Brain]” value [3, 13] was 29.4623 µM and the “Mean [Palsma]” value [3, 13] was 26.0411 µM. The “Mean [Brain]” value [3, 14] was 76.4798 µM, the “Mean [Palsma]” value [3, 14] was 59.0466 µM and the “Mean [Brain]” value [3, 15] was 2.628 µM. The “Mean [Palsma]” value [3, 15] was 2.477 µM, the “Mean [Brain]” value [3, 16] was 7.154 µM and the “Mean [Palsma]” value [3, 16] was 7.163 µM. The “SCN8A mouse 6HZ Fraction of animals seizing” value (“SCN8A mouse 6HZ Fraction” for short) ([4]; Study16042, 1 mg/kg) was 1, the “SCN8A mouse 6HZ Fraction” value ([4]; Study16042, 3 mg/kg) was 0.75 and the “SCN8A mouse 6HZ Fraction” value ([4]; Study16042, 10 mg/kg) was 0.25. The “SCN8A mouse 6HZ Fraction” value ([4]; Study16042, 30 mg/kg) was 0, the “SCN8A mouse 6HZ Fraction” value ([4]; Study16042, 56 mg/kg) was 0 and the “SCN8A mouse 6HZ Fraction” value ([4]; Study16189, 10 mg/kg) was 0.15. For the same molecule, the “SCN8A mouse 6HZ Fraction” value ([4]; Study16189, 30 mg/kg) was 0, the “SCN8A mouse 6HZ Fraction” value ([4]; Study16202, 1 mg/kg, P75) was 1 and the “SCN8A mouse 6HZ Fraction” value ([4]; Study16202, 3 mg/kg, P75) was 0.858.
With O=C1NC(=O)C(c2ccccc2)(c2ccccc2)N1 [phenytoin, Phenytoin] the “minimal plasma concentration provoking behavioral signs (BSC)” value [5] was 11 µM, the EC50 ([1]; WT rat DC-MES (oral; phenytoin i.p.), read-out: plasma EC50) was 4.5 µM and the EC50 ([1]; WT rat DC-MES, 2 hr post dose (oral; phenytoin i.p.), read-out: brain EC50) was 2.6 µM. The “WT mouse DC-MES acute Fraction of animals seizing” value (shortened to “WT mouse DC-MES acute Fraction”) ([6]; Study16130, 5 mg/kg) was 0.5714, the “WT mouse DC-MES acute Fraction” value ([6]; Study16130, 10 mg/kg) was 0 and the “WT mouse DC-MES acute Fraction” value ([6]; Study17131, 2 mg/kg) was 0.6667. For the same molecule, the “WT mouse DC-MES acute Fraction” value ([6]; Study17136, 2 mg/kg) was 0.7143, the “WT mouse DC-MES acute Fraction” value ([6]; Study17136, 5 mg/kg) was 0.625 and the EC50 ([6]; WT mouse DC-MES, 2 hr post dose (oral; phenytoin i.p.), read-out: brain EC50) was 13 µM. For the same molecule, the concentration at 2 h ([7]; brain, 2 mg/kg, Study17131, 2 mg/kg, read-out: Mean [Brain]) was 6.12 µM, the concentration at 2 h ([7]; brain, 2 mg/kg, Study17136, 2 mg/kg, read-out: Mean [Brain]) was 3.6 µM and the concentration at 2 h ([7]; brain, 5 mg/kg, Study16130, 5 mg/kg, read-out: Mean [Brain]) was 17.9 µM. For the same molecule, the concentration at 2 h ([7]; brain, 5 mg/kg, Study17136, 5 mg/kg, read-out: Mean [Brain]) was 10.9 µM, the concentration at 2 h ([7]; brain, 10 mg/kg, Study16130, 10 mg/kg, read-out: Mean [Brain]) was 38.3 µM and the concentration at 2 h ([7]; plasma, 2 mg/kg, Study17131, 2 mg/kg, read-out: Mean [Palsma]) was 3.42 µM. The concentration at 2 h ([7]; plasma, 2 mg/kg, Study17136, 2 mg/kg, read-out: Mean [Palsma]) was 3.65 µM, the concentration at 2 h ([7]; plasma, 5 mg/kg, Study16130, 5 mg/kg, read-out: Mean [Palsma]) was 16.1 µM and the concentration at 2 h ([7]; plasma, 5 mg/kg, Study17136, 5 mg/kg, read-out: Mean [Palsma]) was 11.5 µM. The concentration at 2 h ([7]; plasma, 10 mg/kg, Study16130, 10 mg/kg, read-out: Mean [Palsma]) was 30.7 µM and the EC50 ([4]; Mus musculus, Scn8a^N1768D/+ 6 Hz model, 2 hr post dose (oral; phenytoin i.p.), read-out: brain EC50) was 18 µM.

Source: article PMC8903829 (eLife, 2022)
